From patent US20240024291A1, “Uses of Dihydroorotate Dehydrogenase Inhibitors” (University of Maryland, Baltimore, priority 2022, published 2024) come the findings set out here.

Each structure is given as a SMILES string.

What all share (assay type): cell-based, human
Test [1] concerns 08-387 glioblastoma neurosphere line. In words: gH2AX foci immunofluorescence (DNA damage). The note with it: IC50 dose. The protocol: (§1) The 913, 3691, 08-387, and 1079 glioblastoma neurosphere-derived cells (1×10^4) were treated with DMSO (control) or IC50 concentration of compound 1 and cultured in either normoxia or hypoxia for 48 hours. Cells were spun with a Milles Scientific Cyto-Tek Model 4325 cytocentrifuge slide centrifuge onto Superfrost slides (VWR-48311-703) at 1500 rpm for 5 minutes. Slides were rinsed briefly with Hanks Balanced Salt Solution (HBSS), fixed in 4% paraformaldehyde in PBS, and rinsed with HBSS twice to remove any residual fixative. Cells were permeabilized with PBS containing 0.1% Triton-X100 (PBST) for 15 minutes, then blocked for 1 hour with PBST with 5% BSA. The slides were incubated overnight at 4° C. with Phospho-H2AX antibody (see above), diluted 1:250 in PBST containing 5% BSA. Slides were rinsed three times with HBSS, then incubated for one hour at room temperature with donkey anti-mouse, Alexa488-conjugated, secondary antibody diluted 1:500 in PBST containing 5% BSA (see above). Cell nuclei were counterstained with DAPI (150 nM), and the slides were cover-slipped with Prolong antifade mounting media (Molecular Probes #P36961). Using a 40X objective, at least ten random high-power fields, per condition, were captured with a Nikon W-1 Spinning Disk confocal microscope through the University of Maryland Baltimore CIBR confocal facility. The number of yH2AX-positive foci per cell was counted using ImageJ (unige.ch/medecine/bioimaging/files/3714/1208/5964/CellCounting.pdf). Individual cells with ten or more foci were considered positive for significant DNA damage. At least 300 cells were analyzed in each sample.
(§2) Reduced de novo pyrimidine synthesis mediated by MCT4-depletion promoted an accumulation of DNA damage (29). To test and quantify the magnitude of compound 1 effect on DNA damage, the four compound 1 responsive GBM neurosphere lines 913, 3691, 08-387, and 1079 were cultured in normoxia (21% oxygen) and hypoxia (1% oxygen) with a model-specific IC50 dose of compound 1 for 48 hours followed by immunocytochemical analysis of the DNA-damage marker g-H2AX. Table 1 is a summary of IC50 (nM or mM) values established for the seven glioblastoma neurosphere lines

In test [2] the test system is 1079 glioblastoma neurosphere line. Description: gH2AX foci immunofluorescence (DNA damage). The note with it: IC50 dose. As for the experimental part: as §1, §2
For test [3], the system named is 3691 glioblastoma neurosphere line. In words: gH2AX foci immunofluorescence (DNA damage). As to conditions: IC50 dose. As for the experimental part:
as §1, §2

Test [4] has as its system 913 glioblastoma neurosphere line. Description: gH2AX foci immunofluorescence (DNA damage). The note with it: IC50 dose. As for the experimental part:
as §1, §2

The test system of the next test is 08-387 neurosphere line. Description: Western blot for cleaved PARP1. The note with it: 10 nM. The protocol: (§3) Western Blots were performed using 25 µg of protein per sample loaded onto NuPAGE® Novex® 4-12% Bis-Tris protein gels and transferred onto nitrocellulose membranes that were then blocked with 5% BSA in PBS and 0.1% Tween (PBST). Primary antibody incubation was performed in 5% BSA in PBST at 4° C. overnight, and HRP-labeled secondary antibody incubation (1:5000) was performed for one hour at room temperature in 5% BSA in PBST.
(§4) Antibodies used for western blotting were acquired from the following sources: Cleaved PARP (Asp214) (D64E10) XP® Rabbit mAb, Cell Signaling Technology Cat#5625, RRID:AB_10699459, 1:1000 for Western blots. Phospho-H2AX, Millipore Cat#RRID:AB_2755003, 1:1000 for Western blots, and 1:250 for immunofluorescence imaging. p-Tubulin, Millipore Cat #MAB5564, RRID:AB 11212768, 1:10,000 for Western blots. p44/42 MAPK (Erk1/2) (137F5) Rabbit mAb (Cell Signaling Technology Cat #4695, RRID:AB_390779) 1:1000 for Western blots; Phospho-p44/42 MAPK (Erk1/2) (Thr202/Tyr204) (Cell Signaling Technology Cat #9101, RRID:AB_331646) 1:1000 for Western blots; Akt Antibody (Cell Signaling Technology Cat #9272, RRID:AB_329827) 1:1000 for Western blots; Phospho-Akt (Ser473) Antibody (Cell Signaling Technology Cat #9271, RRID:AB 329825) 1:1000 for Western blots.
(§5) Poly(ADP-ribose) polymerase 1 (PARP1) is a nuclear protein that is activated by binding to DNA lesions and catalyzes the poly(ADP-ribosyl)ation of various nuclear proteins, including PARP1 itself, to recruit the DNA repair machinery to DNA lesions (53, 54. When excessive DNA damage occurs, PARP1 is cleaved to generate an 89 kDa fragment shown to serve as a cytoplasmic PAR carrier to induce AIF-mediated apoptosis (55). Given the profound induction of DNA damage in compound 1-treated GBM neurospheres, the prevalence of the 89 kDa PARP1 fragment in control and 10 nM compound 1-treated cells was measured. Strikingly, a 9.7- and 56-fold increase in the level of cleaved PARP1 was found in 913 and 08-387 neurosphere lines, respectively, when cultured in normoxia. Similarly, a 9.9- and 71-fold increase was documented in the level of cleaved PARP1 in 913 and 08-387 neurosphere lines cultured in hypoxia (FIG. 6).

Another test deals with 913 neurosphere line. Description: Western blot for cleaved PARP1. The note with it: 10 nM. The protocol: as §3, §4, §5
In test [5] the test system is EGFRviii expressing 08-387 and 913 glioblastoma cells. In words: Gemcitabine sensitization assay (Alamar blue). As to conditions: varying dosages of gemcitabine and 100 nM of compound 1. The protocol: Ten thousand 08-387 or 913 glioblastoma cells per well were seeded in a 96 well plate. […] Post 72 hr of treatment, cell viability was calculated on Alamar blue absorbance reading.
To further evaluate the potential role of EGFR in compound 1 resistance, the 913 and 08-387 neurosphere lines were transduced with lentiviruses encoding EGFRvIll or GFP (as control) and these neurospheres were challenged with a relatively high dose of 1 mM compound 1.

As to `CCn1c(CO)nn(-c2cc(O[C@@H](C)C(F)(F)F)c(C(=O)Nc3c(F)cccc3Cl)cc2F)c1=O` [Compound 1, N-(2-chloro-6-fluorophenyl)-4-[4-ethyl-4,5-dihydro-3-(hydroxymethyl)-5-oxo-1H-1,2,4-triazol-1-yl]-5-fluoro-2-[(1S)-2,2,2-trifluoro-1-methylethoxy]-benzamide], the “nuclei with multiple gH2AX-positive foci” value came to 32% in test [1] (08-387, hypoxia, 48 hours (control 13.6%)); 30% in test [1] (08-387, normoxia, 48 hours (control 11.6%)); 23% in test [4] (913, hypoxia, 48 hours (control 2.3%)); 89% in test [4] (913, normoxia, 48 hours (control 11%)). The g-H2AX positivity was 38.4% in test [2] (1079, hypoxia, 48 hours (control 16.2%)); 32.4% in test [2] (1079, normoxia, 48 hours (control 14.8%)); 44.2% in test [3] (3691, hypoxia, 48 hours (control 11.3%)); 46% in test [3] (3691, normoxia, 48 hours (control 9%)). Moreover, the “increase in the level of cleaved PARP1” value in the test with 08-387 neurosphere line (08-387, hypoxia) stood at 71 fold; with 08-387 neurosphere line (08-387, normoxia), 56 fold; with 913 neurosphere line (913, hypoxia), 9.9 fold; in the test with 913 neurosphere line (913, normoxia), 9.7 fold. Also, in test [5], the sensitization to gemcitabine entry is recorded as “sensitizes”.
